Results as given in patent publication US8921383B2, “Thiazolopyrimidine compounds” (Hoffmann-La Roche Inc., priority 2011, dated 2014).

Biological target: T1, purified recombinant human SYK360-635 (Homo sapiens, UniProt P43405)
T1 construct: truncated construct of Spleen Tyrosine Kinase aa 360-635; GST; made in house
Assay: SYK kinase assay: 33P γATP incorporation into biotinylated peptide substrate, IC50 determination
Assay type: biochemical
Details: SYK 0.5 nM, ATP 20 μM, DYE peptide 5 μM, 30° C. 15 min; read-out: IC50 h-syk-gst-sf9-c (inactive-dephosphorylated)
Description: Determination of IC50 of Spleen Tyrosine Kinase (SYK) Inhibition:
SYK kinase assay is a standard kinase assay adapted to a 96 well plate format. This assay is performed in 96-well format for IC50 determination with […] which represented 10 half log dilutions and a 40 μL reaction volume. The assay measures the incorporation of radiolabeled ^33P γATP into an N-terminally biotinylated peptide substrate, derived from naturally occurring phosphoacceptor consensus sequence (Biotin-11aa DY*E). Phosphorylated products were detected upon termination of reactions with EDTA and the addition of Streptavidin coated beads.
Assay plates: 96-well MultiScreen 0.65 um filter plates (Millipore Cat. No.: MADVNOB10)
BSA: Bovine Serum Albumin Fraction V, fatty acid free (Roche Diagnostics GmbH, Cat. No. 9100221) diluted to a final concentration of 0.1%
Assay Dilution Buffer (ADB): 50 mM HEPES, 0.1 mM EGTA, 0.1 mM Na Vanadate, 0.1 mM β-glycerophosphate, 10 mM MgCl2, 1 mM DTT, 0.1% BSA, pH 7.5
Bead wash buffer: 10 g/L PBS (Phosphate buffered saline) with 2M NaCl+1% phosphoric acid.
DMSO and the mixture was incubated for 10 min at RT.
The kinase reaction was initiated by the addition of 10 μL 4× substrate cocktail containing the DYE peptide substrate [0 or 5 μM], ATP [20 μM] and ^33PγATP [2 μCi/r×n]. After incubation at 30° C. for 15 min, the reaction was terminated by the transfer of 25 μL of the reaction sample to a 96 well 0.65 μm Millipore MADVNOB membrane/plate containing 200 μL 5 mM EDTA and 20% Streptavidine coated beads in PBS.
After the last wash membrane/plates were transferred to an adaptor plate, heat dried for 15 min at 60° C., and 50 μL scintillation cocktail was added to each well and 4 h later the amount of radioactivity was counted in a top counter.

SMILES | IC50 [µM]
COC(=O)c1ccc(C(=O)NC2CCN(c3nc(Nc4ccc(OC)c(OC)c4)c4ncsc4n3)C2)cn1 (centres unmarked) [Compound I-38, Methyl 5-(1-(7-(3,4-dimethoxyphenylamino)thiazolo[5,4-d]pyrimidin-5-yl)pyrrolidin-3-ylcarbamoyl)picolinate] | 1.95
CNC(=O)c1ccc(NC(=O)c2cccc(-c3nc(Nc4ccc(OC)c(OC)c4)c4ncsc4n3)c2)cc1 [Compound I-3, 3-(7-(3,4-Dimethoxyphenylamino)thiazolo[5,4-d]pyrimidin-5-yl)-N-(4-(methylcarbamoyl)phenyl)benzamide] | 0.071
COc1ccc(Nc2nc(N3CCC(NC(=O)c4ccc5c(c4)NC(=O)C5)C3)nc3scnc23)cc1OC (centres unmarked) [Compound I-8, N-(1-(7-(3,4-Dimethoxyphenylamino)thiazolo[5,4-d]pyrimidin-5-yl)pyrrolidin-3-yl)-2-oxoindoline-6-carboxamide] | 0.882
COc1ccc(Nc2nc(-c3cccc(C(F)=Cc4ccc(C(=O)O)cc4)c3)nc3scnc23)cc1OC (stereo in doubt) [Compound I-31, 4-((E)-2-{3-[7-(3,4-Dimethoxy-phenylamino)-thiazolo[5,4-d]pyrimidin-5-yl]-phenyl}-2-fluoro-vinyl)-benzoic acid] | 0.592
COc1ccc(Nc2nc(N3CCC(NC(=O)c4ccc5[nH]ncc5c4)C3)nc3scnc23)cc1OC (centres unmarked) [Compound I-35, N-(1-(7-(3,4-Dimethoxyphenylamino)thiazolo[5,4-d]pyrimidin-5-yl)pyrrolidin-3-yl)-1H-indazole-5-carboxamide] | 0.418
COC(=O)c1cccc(-c2nc(Nc3cccc(S(C)(=O)=O)c3)c3ncsc3n2)c1 [Compound I-26, Methyl 3-(7-(3-(methylsulfonyl)phenylamino)thiazolo[5,4-d]pyrimidin-5-yl)benzoate] | 2.06
COc1ccc(Nc2nc(N3CCC(C(=O)NCCc4ccncc4)CC3)nc3scnc23)cc1OC [Compound I-21, 1-(7-(3,4-Dimethoxyphenylamino)thiazolo[5,4-d]pyrimidin-5-yl)-N-(2-(pyridin-4-yl)ethyl)piperidine-4-carboxamide] | 1.85
COc1ccc(Nc2nc(N3CCCC(C(=O)Nc4ccc(-c5noc(=O)[nH]5)cc4)C3)nc3scnc23)cc1OC (centres unmarked) [Compound I-44, 1-(7-(3,4-Dimethoxyphenylamino)thiazolo[5,4-d]pyrimidin-5-yl)-N-(4-(5-oxo-4,5-dihydro-1,2,4-oxadiazol-3-yl)phenyl)piperidine-3-carboxamide] | 0.136
COc1ccc(Nc2nc(N3CCC(C(=O)NCCc4cc[nH]c(=O)c4)CC3)nc3scnc23)cc1OC [Compound I-22, 1-(7-(3,4-Dimethoxyphenylamino)thiazolo[5,4-d]pyrimidin-5-yl)-N-(2-(2-oxo-1,2-dihydropyridin-4-yl)ethyl)piperidine-4-carboxamide] | 4.88
COc1ccc(Nc2nc(-c3cccc(CNc4ccc(C(=O)OC(C)(C)C)cc4)c3)nc3scnc23)cc1OC [Compound I-29, tert-Butyl 4-(3-(7-(3,4-dimethoxyphenylamino)thiazolo[5,4-d]pyrimidin-5-yl)benzylamino)benzoate] | 1.49
COc1ccc(Nc2nc(N3CCCC(C(=O)Nc4ccc5[nH]ncc5c4)C3)nc3scnc23)cc1OC (centres unmarked) [Compound I-41, 1-(7-(3,4-Dimethoxyphenylamino)thiazolo[5,4-d]pyrimidin-5-yl)-N-(1H-indazol-5-yl)piperidine-3-carboxamide] | 1.69
COc1ccc(Nc2nc(N3CCC(NC(=O)c4cnccn4)C3)nc3scnc23)cc1OC (centres unmarked) [Compound I-12, N-(1-(7-(3,4-Dimethoxyphenylamino)thiazolo[5,4-d]pyrimidin-5-yl)pyrrolidin-3-yl)pyrazine-2-carboxamide] | 0.933
COc1ccc(Nc2nc(-c3cccc(C(=O)Nc4ccc(-c5nnc(S)o5)cc4)c3)nc3scnc23)cc1OC [Compound I-15, 3-[7-(3,4-Dimethoxy-phenylamino)-thiazolo[5,4-d]pyrimidin-5-yl]-N-[4-(5-mercapto-[1,3,4]oxadiazol-2-yl)-phenyl]-benzamide] | 0.045
COc1ccc(Nc2nc(-c3cccc(C(=O)Nc4ccc(C(=O)O)c(OC)c4)c3)nc3scnc23)cc1OC [Compound I-16, 4-(3-(7-(3,4-Dimethoxyphenylamino)thiazolo[5,4-d]pyrimidin-5-yl)benzamido)-2-methoxybenzoic acid] | 0.012
COc1ccc(Nc2nc(-c3cccc(C(=O)Nc4ccc5cn[nH]c5c4)c3)nc3scnc23)cc1OC [Compound I-19, 3-[7-(3,4-Dimethoxy-phenylamino)-thiazolo[5,4-d]pyrimidin-5-yl]-N-(1H-indazol-6-yl)-benzamide] | 0.056
COc1ccc(Nc2nc(N3CCC(NC(=O)c4ccc(C(=O)O)c(O)c4)C3)nc3scnc23)cc1OC (centres unmarked) [Compound I-9, 4-(1-(7-(3,4-Dimethoxyphenylamino)thiazolo[5,4-d]pyrimidin-5-yl)pyrrolidin-3-ylcarbamoyl)-2-hydroxybenzoic acid] | 0.04
COc1ccc(Nc2nc(N3CCC(NC(=O)c4ccc(N)nc4)C3)nc3scnc23)cc1OC (centres unmarked) [Compound I-13, 6-Amino-N-{1-[7-(3,4-dimethoxy-phenylamino)-thiazolo[5,4-d]pyrimidin-5-yl]-pyrrolidin-3-yl}-nicotinamide] | 0.566
COc1ccc(Nc2nc(N3CCC(NC(=O)c4ccc(C(=O)O)c(OC)c4)C3)nc3scnc23)cc1OC (centres unmarked) [Compound I-10, 4-(1-(7-(3,4-Dimethoxyphenylamino)thiazolo[5,4-d]pyrimidin-5-yl)pyrrolidin-3-ylcarbamoyl)-2-methoxybenzoic acid] | 0.111
COc1ccc(Nc2nc(-c3cccc(C(=O)N4CCCNCC4)c3)nc3scnc23)cc1OC [Compound I-2, [1,4]Diazepan-1-yl-{3-[7-(3,4-dimethoxy-phenylamino)-thiazolo[5,4-d]pyrimidin-5-yl]-phenyl}-methanone] | 1.11
COc1ccc(Nc2nc(-c3ccc(C(=O)NCCc4ccn(C)c(=O)c4)cc3)nc3scnc23)cc1OC [Compound I-24, 4-[7-(3,4-Dimethoxy-phenylamino)-thiazolo[5,4-d]pyrimidin-5-yl]-N-[2-(1-methyl-2-oxo-1,2-dihydro-pyridin-4-yl)-ethyl]-benzamide] | 0.916

The remaining lines, values ahead:

IC50 [µM] | SMILES
3.18 | COC(=O)c1cccc(-c2nc(Nc3cccc(C(F)(F)F)c3)c3ncsc3n2)c1 [Compound I-56, Methyl 3-(7-(3-(trifluoromethyl)phenylamino)thiazolo[5,4-d]pyrimidin-5-yl)benzoate]
2.25 | COc1cc(Nc2nc(-c3cccc(C(N)=O)c3)nc3scnc23)cc(OC)c1OC [Compound I-58, 3-[7-(3,4,5-Trimethoxy-phenylamino)-thiazolo[5,4-d]pyrimidin-5-yl]-benzamide]
1.52 | COc1ccc(Nc2nc(N3CCCC(C(=O)Nc4cnccn4)C3)nc3scnc23)cc1OC (centres unmarked) [Compound I-49, 1-(7-(3,4-Dimethoxyphenylamino)thiazolo[5,4-d]pyrimidin-5-yl)-N-(pyrazin-2-yl)piperidine-3-carboxamide]
0.351 | C[C@H]1CCCN1c1cccc(Nc2nc(-c3ccc(C(=O)NCCN(C)C)cc3)nc3scnc23)c1 [Compound I-65, (S)-N-(2-(Dimethylamino)ethyl)-4-(7-(3-(2-methylpyrrolidin-1-yl)phenylamino)thiazolo[5,4-d]pyrimidin-5-yl)benzamide]
0.441 | COc1ccc(Nc2nc(N3CCCC(C(=O)Nc4ccc(-c5nnc(S)n5C)cc4)C3)nc3scnc23)cc1OC (centres unmarked) [Compound I-52, 1-(7-(3,4-Dimethoxyphenylamino)thiazolo[5,4-d]pyrimidin-5-yl)-N-(4-(5-mercapto-4-methyl-4H-1,2,4-triazol-3-yl)phenyl)piperidine-3-carboxamide]
1.11 | COc1cc(Nc2nc(-c3ccc(C(N)=O)cc3)nc3scnc23)cc(N2CCC[C@@H]2C)c1 [Compound I-60, 4-{7-[3-Methoxy-5-((S)-2-methyl-pyrrolidin-1-yl)-phenylamino]-thiazolo[5,4-d]pyrimidin-5-yl}-benzamide]
6.15 | COc1ccc(Nc2nc(N3CCC(NC(=O)c4ccc(C(=O)O)cc4)C3)nc3scnc23)nc1OC (centres unmarked) [Compound I-55, 4-(1-(7-(5,6-Dimethoxypyridin-2-ylamino)thiazolo[5,4-d]pyrimidin-5-yl)pyrrolidin-3-ylcarbamoyl)benzoic acid]
3.87 | O=C(O)c1cccc(-c2nc(Nc3cccc(N4CC5(COC5)C4)c3)c3ncsc3n2)c1 [Compound I-53, 3-{7-[3-(2-Oxa-6-aza-spiro[3.3]hept-6-yl)-phenylamino]-thiazolo[5,4-d]pyrimidin-5-yl}-benzoic acid]
1.04 | COc1ccc(-c2nc(Nc3cccc(N4CCC[C@@H]4C)c3)c3ncsc3n2)cn1 [Compound I-61, (S)-5-(6-Methoxypyridin-3-yl)-N-(3-(2-methylpyrrolidin-1-yl)phenyl)thiazolo[5,4-d]pyrimidin-7-amine]
